Test results as given in patent US20240368174A1, “Antiviral Heterocyclic Compounds” (Enanta Pharmaceuticals, Inc., priority 2023, published 2024).

System: HMPV clinical isolate A2 strain TN 94-49
Experiment: HMPV antiviral assay, Method 1 (LLC-MK2 cells, ATP-Lite)
Type: cell-based
Settings: human metapneumovirus, hMPV A2 TN/94-49, LLC-MK2 cells
Description: In vitro HMPV antiviral activity was evaluated using the clinical isolate A2 strain TN 94-49 (obtained from Dr. John Williams, Vanderbilt University, Tennessee) and LLC-MK2 cells (ATCC #CCL-7), an immortalized kidney epithelial cell line from Macaca mulatta. Compounds were resuspended in dimethyl sulfoxide (DMSO) at 10 mM, serially diluted and added to a 384-well source plate. Subsequently, the compounds were diluted and transferred onto 384-well assay plates using the Echo-650 automated liquid handling system (Beckman Coulter, Indiana). The test compounds were assessed in duplicate at a top concentration of 2 μM followed by 2.5-fold serial dilutions to give a total of 10 concentration points. DMSO control wells were also included on the assay plates and were either infected or not, acting as positive and negative controls. A2 TN 94-49 virus infections were performed in-suspension with LLC-MK2 cells. The cells were washed twice with PBS and removed from the cell-culture flask with 0.25% trypsin-EDTA (Thermo Fisher Scientific, MA). The trypsin-EDTA was inactivated by resuspending in 2% fetal bovine serum (FBS) and OptiMEM (ThermoFisher Scientific, MA) containing 1% penicillin-streptomycin. Cells were pelleted by centrifuging for 5 minutes at 800 rpm, the supernatant was removed, and cells were re-suspended and washed in PBS plus 100 μg/mL CaCl2). This step was performed twice. Cells were then re-suspended in serum-free (SF)-OptiMEM containing 4 μg/mL TPCK-Trypsin (Sigma Aldrich, MO), 1% penicillin-streptomycin (ThermoFisher Scientific, MA) and 100 μg/mL CaCl2). Cells were counted and seeded at a density of 5,000 cells/well, 12.5 μL/well. Virus infections were done at a multiplicity of infection (MOI) of 0.005 with 12.5 μL added per well. Virus infections were performed in infection media which contained SF-OptiMEM, 100 μg/mL CaCl2) and 1% penicillin-streptomycin. HMPV viral stocks are suspended in infection media+5% glycerol, thus an equal volume of infection media+5% glycerol was added to uninfected wells to equalize the final % glycerol across all wells of the assay plate. The final concentration of TPCK-trypsin was 2 μg/mL. The assay plates were incubated at 37° C., 5% CO2 for 7 days. After 7 days incubation, 12.5 μL of ATP-Lite (PerkinElmer, MA) was added to each well and the raw luminescence values were determined using the Envision 2104 (Perkin Elmer, MA). The average of the raw luminescence values for the cells and virus only positive control wells was subtracted from all conditions tested and the percent cell health was determined by dividing these values by the average of the cells only negative control wells. EC50 values were then calculated by non-linear regression using a four-parameter curve logistic equation. The curve fit model employed was XLFit Dose Response One Site Model 200: y=(A+(B/(1+((x/C)^D)))), where A is the minimum y value, B is the maximum y value, C is the log EC50 value, and D is the slope factor.

EC50 [nM] | SMILES
> 500 | COc1cc(C(=O)NC[C@](O)(c2cc3c(c(-c4cc(Cl)c(F)cc4F)n2)OC[C@]3(C)C(N)=O)C2CC2)cn2cc(C(F)F)nc12 [Example 78]
< 500 | COc1cc(C(=O)NC[C@@](O)(c2ccccc2)c2cc3c(c(-c4cc(Cl)c(F)cc4F)n2)OC[C@]3(C)C(N)=O)cc2cc(C)cnc12 [Example 80]
> 500 | C[C@]1(C(N)=O)COc2c1cc([C@@](O)(CNC(=O)c1ccc3nc(C(F)(F)F)oc3c1)c1ccccc1)nc2-c1cc(Cl)c(F)cc1F [Example 82]
< 500 | COc1cc(C(=O)NC[C@@](O)(c2ccccc2)c2cc3c(c(-c4cc(Cl)c(F)cc4F)n2)OC[C@]3(C)C(N)=O)cc2oc(C)nc12 [Example 84]
< 500 | [2H]C([2H])([2H])c1nc2ccc(C(=O)NC[C@@](O)(c3ccccc3)c3cc4c(c(-c5cc(Cl)c(F)cc5F)n3)OC[C@]4(C)C(N)=O)cc2o1 [Example 87]
< 500 | COc1cc(C(=O)NC[C@](O)(c2cc3c(c(-c4cc(Cl)c(F)cc4F)n2)OC[C@]3(C)C(N)=O)c2ccccc2F)cc2cn(C3CC3)nc12 [Example 136]
< 500 | COc1cc(C(=O)NC[C@](O)(c2cc3c(c(-c4cc(Cl)c(F)cc4F)n2)OC[C@]3(C)C(N)=O)c2ccccc2F)cc2cc(C3CC3)nn12 [Example 137]
< 500 | COc1cc(C(=O)NC[C@@](O)(c2ccccc2)c2cc3c(c(-c4cc(Cl)c(F)cc4F)n2)OC[C@]3(C)C(=O)NC2CC2)cc2cn(C3CC3)nc12 [Example 143]
< 500 | COc1cc(C(=O)NC[C@@](O)(c2ccccc2)c2cc3c(c(-c4cc(C(F)(F)F)ccc4F)n2)OC[C@]3(C)C(N)=O)cc2cn(C(F)F)nc12 [Example 148]
< 500 | COc1cc(C(=O)NC[C@@](O)(c2ccccc2)c2cc3c(c(-c4cc(Cl)c(F)cc4F)n2)OC[C@]3(C)C(N)=O)cc2cn(C(F)F)nc12 [Example 156]
< 500 | COc1cc(C(=O)NC[C@@](O)(c2ccccc2)c2cc3c(c(-c4cc(Cl)c(F)cc4F)n2)OC[C@]3(C)C(N)=O)cc2cc(Cl)c(C)nc12 [Example 159]
< 500 | [2H]c1c([2H])c([2H])c([C@](O)(CNC(=O)c2cc(OC)c3nn(C4CC4)cc3c2)c2cc3c(c(-c4cc(Cl)c(F)cc4F)n2)OC[C@]3(C)C(N)=O)c([2H])c1[2H] [Example 169]
< 500 | [2H]C([2H])([2H])c1nc2c(OC)cc(C(=O)NC[C@@](O)(c3ccsc3)c3cc4c(c(-c5cc(Cl)c(F)cc5F)n3)OC[C@]4(C)C(N)=O)cc2s1 [Example 176]
> 500 | COc1cc(C(=O)NC[C@@](O)(c2cc3c(c(-c4cc(Cl)c(F)cc4F)n2)OC[C@]3(C)C(N)=O)c2cnn[nH]2)cc2cn(C3CC3)nc12 [Example 181]
< 500 | [2H]c1nc2c(OC(F)F)cc(C(=O)NC[C@@](O)(c3ccccc3)c3cc4c(c(-c5cc(Cl)c(F)cc5F)n3)OC[C@]4(C)C(N)=O)cc2cc1C([2H])([2H])[2H] [Example 217]

The remaining lines, values behind:

SMILES | EC50 [nM]
COc1cc(C(=O)NC[C@](O)(c2cc3c(c(-c4ccc(F)c(CO)c4F)n2)OC[C@]3(C)C(N)=O)C2CC2)cc2cn(C3CC3)nc12 [Example 72] | > 500
COc1cc(C(=O)NC[C@@](O)(c2ccccc2)c2cc3c(c(-c4cc(Cl)c(F)cc4F)n2)OC[C@]3(C)C(N)=O)cc2ccc(C)nc12 [Example 79] | < 500
COc1cc(C(=O)NC[C@@](O)(c2ccccc2)c2cc3c(c(-c4cc(Cl)c(F)cc4F)n2)OC[C@]3(C)C(N)=O)cc2cc(C(F)(F)F)cnc12 [Example 83] | < 500
Cc1nc2ccc(C(=O)NC[C@@](O)(c3ccccc3)c3cc4c(c(-c5cc(Cl)c(F)cc5F)n3)OC[C@]4(C)C(N)=O)cc2o1 [Example 86] | < 500
COc1cc(C(=O)NC[C@@](O)(c2cccc(F)c2)c2cc3c(c(-c4cc(Cl)c(F)cc4F)n2)OC[C@]3(C)C(N)=O)cc2cn(C(F)F)nc12 [Example 134] | < 500
Cc1nc2c(OC(F)F)cc(C(=O)NC[C@@](O)(c3cccc(F)c3)c3cc4c(c(-c5cc(Cl)c(F)cc5F)n3)OC[C@]4(C)C(N)=O)cc2cc1Br [Example 135] | > 500
COc1cc(C(=O)NC[C@](O)(c2cc3c(c(-c4cc(Cl)c(F)cc4F)n2)OC[C@]3(C)C(N)=O)c2ccccc2F)cc2cn(C(F)F)nc12 [Example 138] | < 500
CNC(=O)[C@@]1(C)COc2c1cc([C@@](O)(CNC(=O)c1cc(OC)c3nn(C4CC4)cc3c1)c1ccccc1)nc2-c1cc(Cl)c(F)cc1F [Example 141] | < 500
CCNC(=O)[C@@]1(C)COc2c1cc([C@@](O)(CNC(=O)c1cc(OC)c3nn(C4CC4)cc3c1)c1ccccc1)nc2-c1cc(Cl)c(F)cc1F [Example 142] | < 500
COc1cc(C(=O)NC[C@@](O)(c2ccccc2)c2cc3c(c(-c4cc(C(F)(F)F)ccc4F)n2)OC[C@]3(C)C(N)=O)cc2cc(C3CC3)nn12 [Example 149] | < 500
[2H]C([2H])([2H])c1nc2c(OC)cc(C(=O)NC[C@@](O)(c3ccccc3)c3cc4c(c(-c5cc(Cl)c(F)cc5F)n3)OC[C@]4(C)C(N)=O)cc2s1 [Example 155] | < 500
[2H]C([2H])([2H])c1nc2c(OC)cc(C(=O)NC[C@@](O)(c3cccc(OC)c3)c3cc4c(c(-c5cc(Cl)c(F)cc5F)n3)OC[C@]4(C)C(N)=O)cc2s1 [Example 163] | < 500
COc1cccc([C@](O)(CNC(=O)c2cc(OC)c3nc(C)c(Cl)cc3c2)c2cc3c(c(-c4cc(Cl)c(F)cc4F)n2)OC[C@]3(C)C(N)=O)c1 [Example 164] | < 500
COc1ccc([C@](O)(CNC(=O)c2cc(OC)c3nn(C(F)F)cc3c2)c2cc3c(c(-c4cc(Cl)c(F)cc4F)n2)OC[C@]3(C)C(N)=O)cc1 [Example 167] | < 500
[2H]C([2H])([2H])c1nc2c(OC)cc(C(=O)NC[C@@](O)(c3ccc(OC)cc3)c3cc4c(c(-c5cc(Cl)c(F)cc5F)n3)OC[C@]4(C)C(N)=O)cc2s1 [Example 168] | < 500
COc1cc(C(=O)NC[C@@](O)(c2ccsc2)c2cc3c(c(-c4cc(Cl)c(F)cc4F)n2)OC[C@]3(C)C(N)=O)cc2cn(C3CC3)nc12 [Example 173] | < 500
COc1cc(C(=O)NC[C@@](O)(c2ccsc2)c2cc3c(c(-c4cc(Cl)c(F)cc4F)n2)OC[C@]3(C)C(N)=O)cc2cn(C(F)F)nc12 [Example 174] | < 500
COc1cc(C(=O)NC[C@@](O)(c2ccsc2)c2cc3c(c(-c4cc(Cl)c(F)cc4F)n2)OC[C@]3(C)C(N)=O)cc2cn(C3(F)CC3)nc12 [Example 175] | < 500
COc1cc(C(=O)NC[C@@](O)(c2ccsc2)c2cc3c(c(-c4cc(F)c(F)cc4F)n2)OC[C@]3(C)C(N)=O)cc2cn(C3CC3)nc12 [Example 177] | < 500
COc1cc(C(=O)NC[C@@](O)(c2ccsc2)c2cc3c(c(-c4cc(F)c(F)cc4F)n2)OC[C@]3(C)C(N)=O)cc2cn(C(F)F)nc12 [Example 178] | < 500
COc1cc(C(=O)NC[C@](O)(c2cc3c(c(-c4cc(Cl)c(F)cc4F)n2)OC[C@]3(C)C(N)=O)c2cnn[nH]2)cc2cn(C3CC3)nc12 [Example 180] | > 500
COc1cc(C(=O)NC[C@](O)(c2cc3c(c(-c4cc(F)c(F)cc4F)n2)OC[C@]3(C)C(N)=O)C2(O)CC2)cc2cn(C3CC3)nc12 [Example 215] | > 500
COc1cc(C(=O)NC[C@@](O)(c2ccccc2)c2cc3c(c(-c4ccc5c(c4Cl)OC(F)(F)O5)n2)OC[C@]3(C)C(N)=O)cc2cn(C3CC3)nc12 [Example 251] | < 500
